Reference: ChEMBL document CHEMBL3727342, “Compounds and methods for kinase modulation, and indications therefor” (2012)

Legend:
[1] = target: Vascular endothelial growth factor receptor 2 (Homo sapiens, UniProt P35968); experiment: Inhibition of KDR (unknown origin) by FRET assay
[2] = target: Serine/threonine-protein kinase B-raf (Homo sapiens, UniProt P15056, V600E); experiment: Inhibition of B-raf V600E mutant (unknown origin) expressed in Sf9 cells using biotin-MEK1substrate incubated for 1 hr
Chain of Serine/threonine-protein kinase B-raf (Homo sapiens, UniProt P15056, V600E) (P15056 2-766 V600E limits assumed): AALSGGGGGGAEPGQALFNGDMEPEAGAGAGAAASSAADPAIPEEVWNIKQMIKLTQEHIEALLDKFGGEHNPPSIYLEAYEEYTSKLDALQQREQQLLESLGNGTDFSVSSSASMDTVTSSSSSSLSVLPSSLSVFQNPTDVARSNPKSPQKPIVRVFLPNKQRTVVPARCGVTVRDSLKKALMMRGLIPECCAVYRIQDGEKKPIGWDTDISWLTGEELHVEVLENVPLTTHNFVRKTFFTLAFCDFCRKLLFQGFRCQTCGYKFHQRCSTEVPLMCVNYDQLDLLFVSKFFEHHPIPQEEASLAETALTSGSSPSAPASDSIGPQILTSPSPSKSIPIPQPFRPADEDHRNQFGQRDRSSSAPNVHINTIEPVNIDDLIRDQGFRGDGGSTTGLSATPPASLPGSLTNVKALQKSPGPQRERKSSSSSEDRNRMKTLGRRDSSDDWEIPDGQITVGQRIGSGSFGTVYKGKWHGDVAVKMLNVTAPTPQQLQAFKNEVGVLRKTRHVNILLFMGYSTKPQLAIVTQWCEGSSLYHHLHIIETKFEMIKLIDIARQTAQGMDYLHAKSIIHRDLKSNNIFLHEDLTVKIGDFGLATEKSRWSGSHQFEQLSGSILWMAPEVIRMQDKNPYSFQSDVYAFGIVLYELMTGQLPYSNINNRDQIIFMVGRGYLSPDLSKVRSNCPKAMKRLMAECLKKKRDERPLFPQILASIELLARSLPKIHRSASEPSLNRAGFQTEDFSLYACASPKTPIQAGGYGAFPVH

[3] = target: Mast/stem cell growth factor receptor Kit (Homo sapiens, UniProt P10721); experiment: Inhibition of Kit (unknown origin) expressed in Escherichia coli
[4] = target: RAF proto-oncogene serine/threonine-protein kinase (Homo sapiens, UniProt P04049); experiment: Inhibition of human C-raf using biotin-MEK1 substrate incubated for 1 hr
Chain of RAF proto-oncogene serine/threonine-protein kinase (P04049 whole entry): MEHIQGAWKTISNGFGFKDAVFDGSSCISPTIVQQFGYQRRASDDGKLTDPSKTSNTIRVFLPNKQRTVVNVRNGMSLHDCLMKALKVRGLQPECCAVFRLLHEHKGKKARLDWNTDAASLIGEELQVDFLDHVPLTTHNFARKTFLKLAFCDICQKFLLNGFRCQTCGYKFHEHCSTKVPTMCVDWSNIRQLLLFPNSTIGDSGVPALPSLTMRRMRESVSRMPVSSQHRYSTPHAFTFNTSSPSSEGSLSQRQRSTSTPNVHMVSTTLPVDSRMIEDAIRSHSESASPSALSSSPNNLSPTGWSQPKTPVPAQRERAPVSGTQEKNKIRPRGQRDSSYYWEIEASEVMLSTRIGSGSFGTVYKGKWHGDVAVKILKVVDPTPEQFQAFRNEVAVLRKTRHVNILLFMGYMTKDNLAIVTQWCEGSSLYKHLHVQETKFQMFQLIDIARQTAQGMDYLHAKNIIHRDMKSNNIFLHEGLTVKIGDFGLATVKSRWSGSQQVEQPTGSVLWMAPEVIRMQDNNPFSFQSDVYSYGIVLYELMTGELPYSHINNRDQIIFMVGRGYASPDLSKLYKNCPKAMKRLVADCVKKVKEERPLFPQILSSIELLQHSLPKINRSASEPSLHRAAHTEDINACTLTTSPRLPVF

[5] = target: Serine/threonine-protein kinase B-raf (Homo sapiens, UniProt P15056); experiment: Inhibition of N-terminal GST-tagged human recombinant B-Raf (416 to end residues) using biotin-MEK1 substrate incubated for 1 hr
Chain of Serine/threonine-protein kinase B-raf (Homo sapiens, UniProt P15056) (P15056 whole entry): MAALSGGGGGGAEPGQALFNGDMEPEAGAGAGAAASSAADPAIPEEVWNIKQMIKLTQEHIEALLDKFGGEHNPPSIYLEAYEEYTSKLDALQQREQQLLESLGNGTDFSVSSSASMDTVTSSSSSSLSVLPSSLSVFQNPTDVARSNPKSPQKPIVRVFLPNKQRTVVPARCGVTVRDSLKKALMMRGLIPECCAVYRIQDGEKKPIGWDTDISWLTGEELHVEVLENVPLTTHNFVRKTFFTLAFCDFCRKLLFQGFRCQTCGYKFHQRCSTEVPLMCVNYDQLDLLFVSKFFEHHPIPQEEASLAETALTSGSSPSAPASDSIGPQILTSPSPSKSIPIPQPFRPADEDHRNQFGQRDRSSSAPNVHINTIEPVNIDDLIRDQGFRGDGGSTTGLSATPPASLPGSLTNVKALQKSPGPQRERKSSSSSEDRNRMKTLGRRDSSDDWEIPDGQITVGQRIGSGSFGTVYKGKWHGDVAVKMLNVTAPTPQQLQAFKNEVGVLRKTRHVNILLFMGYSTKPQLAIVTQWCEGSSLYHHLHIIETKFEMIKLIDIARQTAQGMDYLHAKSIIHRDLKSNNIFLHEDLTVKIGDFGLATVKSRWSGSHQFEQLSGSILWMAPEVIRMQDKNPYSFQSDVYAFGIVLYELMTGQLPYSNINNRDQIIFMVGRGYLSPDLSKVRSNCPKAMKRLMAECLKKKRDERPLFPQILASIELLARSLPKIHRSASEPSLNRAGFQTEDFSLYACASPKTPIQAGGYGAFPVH

[6] = target: High affinity nerve growth factor receptor (Homo sapiens, UniProt P04629); experiment: Inhibition of TrkA (unknown origin)
[7] = target: T1, Serine/threonine-protein kinase A-Raf (Homo sapiens, UniProt P10398); experiment: Inhibition of A-Raf (unknown origin)
T1 sequence (P10398 whole entry): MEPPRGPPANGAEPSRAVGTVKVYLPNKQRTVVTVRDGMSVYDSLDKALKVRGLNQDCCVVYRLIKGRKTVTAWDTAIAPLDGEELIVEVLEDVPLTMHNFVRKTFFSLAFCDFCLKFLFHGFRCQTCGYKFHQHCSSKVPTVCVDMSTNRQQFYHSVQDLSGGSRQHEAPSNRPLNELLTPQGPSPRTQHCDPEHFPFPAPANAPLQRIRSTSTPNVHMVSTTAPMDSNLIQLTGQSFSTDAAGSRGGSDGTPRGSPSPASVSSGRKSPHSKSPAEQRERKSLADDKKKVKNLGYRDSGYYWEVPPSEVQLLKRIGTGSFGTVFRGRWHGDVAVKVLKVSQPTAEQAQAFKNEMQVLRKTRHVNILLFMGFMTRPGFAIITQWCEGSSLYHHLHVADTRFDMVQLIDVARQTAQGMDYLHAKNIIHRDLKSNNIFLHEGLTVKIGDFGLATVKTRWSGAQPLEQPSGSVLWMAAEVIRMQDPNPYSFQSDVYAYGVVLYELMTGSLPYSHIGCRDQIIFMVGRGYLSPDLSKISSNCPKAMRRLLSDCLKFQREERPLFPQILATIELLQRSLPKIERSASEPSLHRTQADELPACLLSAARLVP

[8] = target: Proto-oncogene tyrosine-protein kinase Src (Homo sapiens, UniProt P12931); experiment: Inhibition of Src (unknown origin) expressed in Escherichia coli using biotin-(E4Y)3 substrate
Chain of Proto-oncogene tyrosine-protein kinase Src (P12931 2-536 limits assumed): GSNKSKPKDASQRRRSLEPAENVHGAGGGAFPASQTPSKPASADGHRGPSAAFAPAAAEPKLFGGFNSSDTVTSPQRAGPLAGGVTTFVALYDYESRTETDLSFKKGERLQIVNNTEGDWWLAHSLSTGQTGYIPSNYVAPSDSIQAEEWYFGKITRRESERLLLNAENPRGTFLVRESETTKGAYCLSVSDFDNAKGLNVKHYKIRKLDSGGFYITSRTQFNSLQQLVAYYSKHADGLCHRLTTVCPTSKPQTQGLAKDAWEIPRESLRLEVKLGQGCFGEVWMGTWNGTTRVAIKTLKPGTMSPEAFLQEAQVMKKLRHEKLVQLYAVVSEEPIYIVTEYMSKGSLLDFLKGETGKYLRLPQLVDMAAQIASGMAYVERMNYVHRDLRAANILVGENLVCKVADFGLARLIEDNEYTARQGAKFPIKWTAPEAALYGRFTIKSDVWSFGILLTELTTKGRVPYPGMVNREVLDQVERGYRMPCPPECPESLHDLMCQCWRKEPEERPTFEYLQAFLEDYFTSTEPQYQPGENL

[9] = target: Macrophage colony-stimulating factor 1 receptor (Homo sapiens, UniProt P07333); experiment: Inhibition of Fms (unknown origin)
Chain of Macrophage colony-stimulating factor 1 receptor (P07333 whole entry): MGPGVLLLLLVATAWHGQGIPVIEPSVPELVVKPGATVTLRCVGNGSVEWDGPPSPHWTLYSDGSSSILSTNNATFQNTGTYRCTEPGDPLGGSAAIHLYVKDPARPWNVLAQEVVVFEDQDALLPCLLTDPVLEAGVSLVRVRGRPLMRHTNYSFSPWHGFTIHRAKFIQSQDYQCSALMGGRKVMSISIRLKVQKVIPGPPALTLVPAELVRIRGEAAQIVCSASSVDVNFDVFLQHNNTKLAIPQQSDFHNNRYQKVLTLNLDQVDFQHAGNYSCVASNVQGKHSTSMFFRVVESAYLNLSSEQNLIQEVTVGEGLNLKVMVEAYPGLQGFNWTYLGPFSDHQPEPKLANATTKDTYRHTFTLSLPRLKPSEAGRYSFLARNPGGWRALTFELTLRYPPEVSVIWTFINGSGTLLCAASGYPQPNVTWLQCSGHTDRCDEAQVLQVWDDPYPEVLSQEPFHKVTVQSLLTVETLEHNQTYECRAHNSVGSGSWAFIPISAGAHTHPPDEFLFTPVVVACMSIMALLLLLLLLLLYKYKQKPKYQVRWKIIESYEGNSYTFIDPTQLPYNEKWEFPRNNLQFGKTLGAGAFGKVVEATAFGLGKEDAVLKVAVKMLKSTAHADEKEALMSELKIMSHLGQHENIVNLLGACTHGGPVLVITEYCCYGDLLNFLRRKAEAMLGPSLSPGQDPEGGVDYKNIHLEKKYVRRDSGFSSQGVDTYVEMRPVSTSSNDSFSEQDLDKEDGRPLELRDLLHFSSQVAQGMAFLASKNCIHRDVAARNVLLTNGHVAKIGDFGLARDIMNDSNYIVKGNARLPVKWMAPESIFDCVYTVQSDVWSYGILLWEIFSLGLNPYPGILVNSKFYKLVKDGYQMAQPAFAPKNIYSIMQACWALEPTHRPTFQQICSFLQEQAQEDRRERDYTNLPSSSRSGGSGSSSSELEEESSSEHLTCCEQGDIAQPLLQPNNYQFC

[10] = target: T2, Tyrosine-protein kinase Tec (Homo sapiens, UniProt P42680); experiment: Inhibition of TEC (unknown origin)
T2 sequence (P42680 whole entry): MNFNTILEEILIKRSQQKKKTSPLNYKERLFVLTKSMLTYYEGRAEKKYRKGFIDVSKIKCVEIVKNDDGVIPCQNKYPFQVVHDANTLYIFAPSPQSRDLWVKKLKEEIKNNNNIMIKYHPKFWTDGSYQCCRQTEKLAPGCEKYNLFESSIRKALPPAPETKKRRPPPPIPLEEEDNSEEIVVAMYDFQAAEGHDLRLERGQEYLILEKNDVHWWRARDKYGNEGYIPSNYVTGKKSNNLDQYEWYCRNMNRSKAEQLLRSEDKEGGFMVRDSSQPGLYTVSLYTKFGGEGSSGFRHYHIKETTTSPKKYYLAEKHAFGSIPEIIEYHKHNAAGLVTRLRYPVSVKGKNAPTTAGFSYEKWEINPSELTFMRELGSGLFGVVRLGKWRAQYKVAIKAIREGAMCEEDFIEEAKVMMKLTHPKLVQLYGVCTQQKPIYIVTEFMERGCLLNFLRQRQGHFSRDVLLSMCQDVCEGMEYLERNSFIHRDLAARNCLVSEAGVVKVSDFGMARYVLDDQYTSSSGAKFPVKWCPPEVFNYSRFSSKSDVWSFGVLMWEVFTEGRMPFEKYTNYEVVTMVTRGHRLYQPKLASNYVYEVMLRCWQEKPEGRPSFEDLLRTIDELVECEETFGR

Chain of Vascular endothelial growth factor receptor 2 (P35968 whole entry): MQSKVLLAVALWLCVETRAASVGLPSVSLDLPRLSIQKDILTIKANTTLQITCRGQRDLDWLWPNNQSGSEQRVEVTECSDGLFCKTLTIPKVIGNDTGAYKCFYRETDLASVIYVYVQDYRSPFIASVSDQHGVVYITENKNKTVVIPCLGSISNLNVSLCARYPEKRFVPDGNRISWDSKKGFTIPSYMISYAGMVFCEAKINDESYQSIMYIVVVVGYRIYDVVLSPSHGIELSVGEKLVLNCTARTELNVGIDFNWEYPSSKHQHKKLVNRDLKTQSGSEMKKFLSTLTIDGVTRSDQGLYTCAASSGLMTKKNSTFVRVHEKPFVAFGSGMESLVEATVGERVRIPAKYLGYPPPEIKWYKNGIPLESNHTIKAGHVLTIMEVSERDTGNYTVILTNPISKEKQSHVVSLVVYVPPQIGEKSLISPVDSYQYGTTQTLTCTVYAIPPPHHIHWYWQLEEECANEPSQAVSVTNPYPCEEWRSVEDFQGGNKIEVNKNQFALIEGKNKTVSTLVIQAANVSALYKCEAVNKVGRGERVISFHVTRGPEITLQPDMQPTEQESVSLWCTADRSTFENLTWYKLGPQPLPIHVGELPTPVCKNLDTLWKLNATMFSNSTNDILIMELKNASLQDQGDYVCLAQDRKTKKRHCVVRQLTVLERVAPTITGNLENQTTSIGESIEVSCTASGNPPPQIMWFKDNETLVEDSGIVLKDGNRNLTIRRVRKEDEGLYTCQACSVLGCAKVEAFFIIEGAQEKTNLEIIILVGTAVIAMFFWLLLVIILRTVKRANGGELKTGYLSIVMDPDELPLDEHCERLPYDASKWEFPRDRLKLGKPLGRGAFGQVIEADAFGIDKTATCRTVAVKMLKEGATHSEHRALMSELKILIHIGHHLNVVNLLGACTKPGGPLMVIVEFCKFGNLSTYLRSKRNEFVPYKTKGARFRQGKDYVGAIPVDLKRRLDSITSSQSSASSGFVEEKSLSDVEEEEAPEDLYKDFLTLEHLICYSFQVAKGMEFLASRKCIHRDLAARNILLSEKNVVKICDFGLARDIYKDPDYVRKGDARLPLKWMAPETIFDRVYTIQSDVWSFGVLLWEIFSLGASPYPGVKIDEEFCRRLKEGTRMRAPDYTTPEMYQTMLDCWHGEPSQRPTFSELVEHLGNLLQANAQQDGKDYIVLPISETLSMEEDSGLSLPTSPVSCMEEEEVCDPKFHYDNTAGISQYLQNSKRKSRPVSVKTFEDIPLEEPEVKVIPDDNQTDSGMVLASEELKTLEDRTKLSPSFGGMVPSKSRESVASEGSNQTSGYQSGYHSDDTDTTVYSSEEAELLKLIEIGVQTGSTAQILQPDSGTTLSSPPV

Structure (SMILES)	IC50 [1]	IC50 [2]	IC50 [4]	further results
CCC(C)S(=O)(=O)Nc1cccc(C(=O)c2c[nH]c3ncncc23)c1F (configuration not stated)	≤ 10 µM	≤ 10 µM		IC50 [3]: ≤ 10 µM
O=C(c1cccc(NS(=O)(=O)C2CCC2)c1F)c1c[nH]c2ncncc12	≤ 10 µM	≤ 10 µM		IC50 [3]: ≤ 10 µM
O=C(c1cccc(NS(=O)(=O)c2ccc(F)cc2)c1F)c1c[nH]c2ncncc12		≤ 10 µM		
CN(C)S(=O)(=O)Nc1cccc(C(=O)c2c[nH]c3ncncc23)c1F		≤ 10 µM		IC50 [3]: ≤ 10 µM
COc1ncnc2[nH]cc(C(=O)c3c(F)ccc(NS(=O)(=O)c4ccc(C(F)(F)F)cc4)c3F)c12			≤ 10 µM	IC50 [5]: ≤ 10 µM; IC50 [8]: ≤ 10 µM
O=C(c1c(F)ccc(NS(=O)(=O)c2cc(F)ccc2F)c1F)c1c[nH]c2ncncc12	≤ 10 µM		≤ 10 µM	IC50 [5]: ≤ 10 µM; IC50 [3]: ≤ 10 µM
CCCc1ccc(S(=O)(=O)Nc2ccc(F)c(C(=O)c3c[nH]c4ncncc34)c2F)cc1			≤ 10 µM	IC50 [5]: ≤ 10 µM; IC50 [7]: ≤ 10 µM
O=C(c1cccc(NS(=O)(=O)C2CCCCC2)c1F)c1c[nH]c2ncncc12		≤ 10 µM	≤ 10 µM	IC50 [3]: ≤ 10 µM
CC(C)c1ccc(S(=O)(=O)Nc2ccc(F)c(C(=O)c3c[nH]c4ncncc34)c2F)cc1	≤ 10 µM	≤ 10 µM	≤ 10 µM	IC50 [7]: ≤ 10 µM
CCCC(C)S(=O)(=O)Nc1cccc(C(=O)c2c[nH]c3ncncc23)c1F (configuration not stated)	≤ 10 µM			IC50 [3]: ≤ 10 µM
O=S(=O)(Nc1ccc(F)c(C(O)c2c[nH]c3ncnc(C4CC4)c23)c1F)c1ccc(C(F)(F)F)cc1 (configuration not stated)				IC50 [9]: ≤ 10 µM
CCCS(=O)(=O)Nc1ccc(F)c(C(=O)c2c[nH]c3ncnc(C)c23)c1F	≤ 10 µM	≤ 10 µM	≤ 10 µM	IC50 [8]: ≤ 10 µM; IC50 [9]: ≤ 10 µM; IC50 [3]: ≤ 10 µM
CC(C)S(=O)(=O)Nc1ccc(F)c(C(=O)c2c[nH]c3ncncc23)c1F	≤ 10 µM	≤ 10 µM		
O=C(c1cccc(NS(=O)(=O)c2ccc(C(F)(F)F)cc2)c1F)c1c[nH]c2ncncc12			≤ 10 µM	IC50 [5]: ≤ 10 µM; IC50 [7]: ≤ 10 µM
CC(C)CS(=O)(=O)Nc1ccc(F)c(C(=O)c2c[nH]c3ncncc23)c1F		≤ 10 µM	≤ 10 µM	IC50 [3]: ≤ 10 µM
O=C(c1c(F)ccc(NS(=O)(=O)c2ccc(OC(F)F)cc2)c1F)c1c[nH]c2ncncc12		≤ 10 µM	≤ 10 µM	IC50 [7]: ≤ 10 µM
CC(C)(C)c1ccc(S(=O)(=O)Nc2ccc(F)c(C(=O)c3c[nH]c4ncncc34)c2F)cc1	≤ 10 µM	≤ 10 µM	≤ 10 µM	
O=C(c1cccc(NS(=O)(=O)CC(F)(F)F)c1F)c1c[nH]c2ncncc12		≤ 10 µM	≤ 10 µM	IC50 [6]: ≤ 10 µM
O=C(c1c(F)ccc(NS(=O)(=O)C2CCCCC2)c1F)c1c[nH]c2ncncc12	≤ 10 µM	≤ 10 µM	≤ 10 µM	IC50 [9]: ≤ 10 µM; IC50 [3]: ≤ 10 µM
O=C(c1cccc(NS(=O)(=O)c2cc(F)ccc2F)c1F)c1c[nH]c2ncncc12	≤ 10 µM		≤ 10 µM	IC50 [5]: ≤ 10 µM; IC50 [8]: ≤ 10 µM; IC50 [3]: ≤ 10 µM
CC(C)CS(=O)(=O)Nc1cccc(C(=O)c2c[nH]c3ncncc23)c1F		≤ 10 µM	≤ 10 µM	
CCCS(=O)(=O)Nc1ccc(F)c(C(=O)c2c[nH]c3ncncc23)c1F			≤ 10 µM	IC50 [10]: ≤ 10 µM; IC50 [5]: ≤ 10 µM; IC50 [7]: ≤ 10 µM
O=C(c1c(F)ccc(NS(=O)(=O)c2ccc(C(F)(F)F)cc2)c1F)c1c[nH]c2ncncc12	≤ 10 µM	≤ 10 µM	≤ 10 µM	IC50 [10]: ≤ 10 µM; IC50 [8]: ≤ 10 µM
O=C(c1cccc(NS(=O)(=O)N2CCCC2)c1F)c1c[nH]c2ncncc12		≤ 10 µM	≤ 10 µM	
O=C(c1cccc(NS(=O)(=O)c2ccccc2F)c1F)c1c[nH]c2ncncc12	≤ 10 µM		≤ 10 µM	IC50 [5]: ≤ 10 µM; IC50 [8]: ≤ 10 µM

The next lines start with results.

IC50 [1]	IC50 [2]	IC50 [4]	Structure (SMILES)	further results
	≤ 10 µM	≤ 10 µM	O=C(c1c(F)ccc(NS(=O)(=O)CC(F)(F)F)c1F)c1c[nH]c2ncncc12	
≤ 10 µM	≤ 10 µM	≤ 10 µM	O=C(c1c(F)ccc(NS(=O)(=O)C2CCC2)c1F)c1c[nH]c2ncncc12	
≤ 10 µM		≤ 10 µM	COc1ncnc2[nH]cc(C(=O)c3cccc(NS(=O)(=O)c4ccc(C(F)(F)F)cc4)c3F)c12	IC50 [5]: ≤ 10 µM
	≤ 10 µM	≤ 10 µM	O=C(c1c(F)ccc(NS(=O)(=O)c2ccccn2)c1F)c1c[nH]c2ncncc12	
	≤ 10 µM	≤ 10 µM	O=C(c1cccc(NS(=O)(=O)N2CCOCC2)c1F)c1c[nH]c2ncncc12	IC50 [6]: ≤ 10 µM; IC50 [3]: ≤ 10 µM
	≤ 10 µM	≤ 10 µM	O=C(c1c(F)ccc(NS(=O)(=O)c2cccc(OC(F)F)c2)c1F)c1c[nH]c2ncncc12	IC50 [7]: ≤ 10 µM
	≤ 10 µM	≤ 10 µM	O=C(c1c(F)ccc(NS(=O)(=O)c2ccc(F)cc2)c1F)c1c[nH]c2ncncc12	
	≤ 10 µM	≤ 10 µM	O=C(c1c(F)ccc(NS(=O)(=O)CCC(F)(F)F)c1F)c1c[nH]c2ncncc12	IC50 [3]: ≤ 10 µM
≤ 10 µM		≤ 10 µM	CCCS(=O)(=O)Nc1cccc(C(=O)c2c[nH]c3ncnc(OC)c23)c1F	IC50 [5]: ≤ 10 µM; IC50 [8]: ≤ 10 µM; IC50 [3]: ≤ 10 µM
≤ 10 µM	≤ 10 µM	≤ 10 µM	O=C(c1c(F)ccc(NS(=O)(=O)c2ccc(F)cc2F)c1F)c1c[nH]c2ncncc12	IC50 [9]: ≤ 10 µM
	≤ 10 µM	≤ 10 µM	CCCS(=O)(=O)Nc1cccc(C(=O)c2c[nH]c3ncncc23)c1F	IC50 [7]: ≤ 10 µM
≤ 10 µM		≤ 10 µM	O=C(c1c(F)ccc(NS(=O)(=O)c2ccccc2F)c1F)c1c[nH]c2ncncc12	IC50 [5]: ≤ 10 µM
		≤ 10 µM	O=C(c1c(F)ccc(NS(=O)(=O)c2cccc(F)c2)c1F)c1c[nH]c2ncncc12	IC50 [5]: ≤ 10 µM
	≤ 10 µM	≤ 10 µM	O=C(c1c(F)ccc(NS(=O)(=O)N2CCOCC2)c1F)c1c[nH]c2ncncc12	IC50 [9]: ≤ 10 µM; IC50 [3]: ≤ 10 µM
≤ 10 µM	≤ 10 µM	≤ 10 µM	O=C(c1cccc(NS(=O)(=O)c2ccc(F)cc2F)c1F)c1c[nH]c2ncncc12	
≤ 10 µM	≤ 10 µM	≤ 10 µM	O=C(c1cccc(NS(=O)(=O)C2CCCC2)c1F)c1c[nH]c2ncncc12	
		≤ 10 µM	O=C(c1cccc(NS(=O)(=O)c2cccc(F)c2)c1F)c1c[nH]c2ncncc12	IC50 [5]: ≤ 10 µM
	≤ 10 µM	≤ 10 µM	CCS(=O)(=O)Nc1ccc(F)c(C(=O)c2c[nH]c3ncncc23)c1F	
≤ 10 µM	≤ 10 µM	≤ 10 µM	CN(C)S(=O)(=O)Nc1ccc(F)c(C(=O)c2c[nH]c3ncncc23)c1F	
≤ 10 µM	≤ 10 µM	≤ 10 µM	O=C(c1c(F)ccc(NS(=O)(=O)c2c(F)cccc2F)c1F)c1c[nH]c2ncncc12	
	≤ 10 µM	≤ 10 µM	O=C(c1cccc(NS(=O)(=O)c2cccnc2)c1F)c1c[nH]c2ncncc12	
	≤ 10 µM	≤ 10 µM	CCC(C)S(=O)(=O)Nc1ccc(F)c(C(=O)c2c[nH]c3ncncc23)c1F (configuration not stated)	
